The target in the test is DNA gyrase (Escherichia coli). As to the kind of experiment: Inhibition of supercoiling activity of DNA gyrase in Escherichia coli.
A word on the IC50: it is the concentration needed to halve the response being measured. A low value points to greater potency. `CC(c1ccc2c(c1)Nc1ccccc1S2)N(O)C(=O)c1ccccc1-c1ccccc1C(=O)O` (stereo unspecified) gave an IC50 of 1360 µM.

Take `COc1cc(C(C)N(O)C(=O)c2ccccc2-c2ccccc2C(=O)O)cc(OC)c1OC` (stereo unspecified): the IC50 is > 1100 µM.

In the case of `CC(c1ccc2oc(-c3ccccc3)cc2c1)N(O)C(=O)c1ccccc1-c1ccccc1C(=O)O` (stereo unspecified), the IC50 was found to be 121 µM. Next, `CC(c1ccc2c(ccc3ccccc32)c1)N(O)C(=O)c1ccccc1-c1ccccc1C(=O)O` (stereo unspecified): 205 µM; `CC(c1ccccc1)N(O)C(=O)c1ccccc1-c1ccccc1C(=O)O` (stereo unspecified): > 1380 µM; `CC(c1ccc(N2CCN(c3ccccc3)CC2)cc1)N(O)C(=O)c1ccccc1-c1ccccc1C(=O)O` (stereo unspecified): > 958 µM.

These data come from BindingDB's records for doi:10.1021/jm9701583 (R.W. Johnson Pharmaceutical Research Institute, 1997).
